Reference: US20110065202A1, “Method for Examination of Alzheimer's Disease” (EISAI R&D MANAGEMENT CO., LTD., priority 2008, published 2011)
Values joined by “and” are separate entries in the source; they are usually repeats but may differ in a detail not shown here. Equal values may be shown once.

Assay: LC/MS measurement of lidocaine and its metabolite MEGX in cerebrospinal fluid of lidocaine-administered subjects
Type: in vivo, human
Details: for Lidocaine peak ratio to lysine / Lidocaine peak ratio to lysine, average: cerebrospinal fluid; for Lidocaine peak ratio to lysine: individual samples, lidocaine hydrochloride standard dose 200 mg at the puncture site, LC/MS; for concentration detected in cerebrospinal fluid, AD patients versus healthy subjects: cerebrospinal fluids, result in words
Procedure: Cerebrospinal fluids of 17 Alzheimer's disease patients (10 male and 7 female Caucasions) and 17 healthy subjects of similar age, sex and race were used as samples. The samples were collected under epidural anesthesia with lidocaine (lidocaine hydrochloride (standard dose: 200 mg) was hypodermically administered at the puncture site). Protein components were removed from 150 microliters of each cerebrospinal fluid by using an ultrafiltration filter of 5000 NMWL (Ultrafree-MC BIOMAX-5, UFC3BCC00, produced by Millipore). To the cerebrospinal fluid, 25 microliters of a solution containing L-Valine-^13C5, ^15N or L-Lysine-^13C5, ^15N as an internal standard substance (0.1% formic acid, 50% methanol solvent) and 800 microliters of a 0.15% hydrochloric acid solution were added. This sample solution was applied to a solid phase extraction column, Oasis MCX (10 mg), produced by Waters. Washing was performed with 1 mL of water first, then with 1 mL of 50% methanol solvent containing 0.1% formic acid, subsequently with 1 mL of water, and with 1 mL of methanol. Then, elution was performed with 1 mL of a mixture of 25% aqueous ammonia and methanol (2:3, v/v), the eluate was dried, the residue was dissolved again in 25 microliters of 50% methanol, and insoluble substances were removed by using a PVDF membrane filter having a pore size of 0.22 micrometer to prepare a sample for LC/MS.
As for the material packed in the LC column, Primesep A resin (particle size: 5 micrometers, pore size: 100 angstroms) of SIELC Technologies (Prospect Heights, Ill.) was packed in a fused silica capillary having an internal diameter of 150 micrometers (internal surface was treated with TC-WAX, produced by GL Sciences, catalog number: 1010-27012) of which tip was tapered to a diameter of about 8 micrometers beforehand with a laser-based puller P-2000 (produced by Sutter) at a height of about 15 cm under a nitrogen gas pressure of about 7 MPa, and this was used as a column. 50% Methanol containing 0.1% formic acid was used as a mobile phase A, and 90% methanol containing 2% trifluoroacetic acid in addition to 0.1% formic acid was used as a mobile phase B. The concentration gradient of the mobile phase B was, from the start of elution, as follows: 0 minute (0%)-5 minutes (0%)-25 minutes (25%)-25.1 minutes (50%)-50 minutes (100%)-60 minutes (100%), and the flow rate was 1 microliter per minute. Since valine as the internal standard substance was eluted in a period of 5 to 25 minutes, and lysine as the internal standard substance was eluted in a period of 25 to 50 minutes, either one of the internal standard substances was appropriately used for quantification of each substance depending on the elution time. Qstar Pulsar i produced by Applied Biosystems was used in the cation detection mode as the mass spectrometer with an applied voltage of 2400 volts at a DP value of 10 and an IP value of 100 for improving the sensitivity to perform the measurement for the scanning range of 50 to 700 amu.
Further, by the MS/MS measurement, m/z 86.08 and m/z 58.06 were obtained from the former and the latter, respectively, as the product ions. The former was estimated to be that of lidocaine, and the latter was estimated to be that of MEGX, which is a metabolite of lidocaine. Therefore, specimens of these substances were obtained, and measured under the same LC/MS conditions. As a result, the same retention times and mass spectra were obtained, and thus it was confirmed that these peaks were those of lidocaine and MEXG.

Lidocaine peak ratio to lysine, average (average of 17 AD patients)	Lidocaine peak ratio to lysine, average (average of 17 healthy controls)	concentration detected in cerebrospinal fluid, AD patients versus healthy subjects	SMILES	Lidocaine peak ratio to lysine (AD patient)	Lidocaine peak ratio to lysine (healthy control)
0.2	1.427	AD patient-specific low concentrations	CCN(CC)CC(=O)Nc1c(C)cccc1C [Lidocaine, lidocaine]	0.842 and 0.040 and 0.059 and 0.035 and 0.396 and 0.030 and 0.000 (2×) and 0.086 and 0.061 and 0.055 and 0.107 and 0.745 and 0.021 and 0.143 and 0.015 and 0.277	1.40 and 0.83 and 2.29 and 1.20 and 1.72 and 2.84 and 1.53 and 0.96 and 0.91 and 1.79 and 1.50 and 0.72 and 1.09 and 1.31 and 0.98 and 0.67 and 2.54
		AD patient-specific low concentrations	CCNCC(=O)Nc1c(C)cccc1C [MEGX, monoethylglycinexylidide]		
